In one test the test system is HCT116-MTAP-KO. The test is described as follows: Cell killing in HCT116 isogenic pair (Cell Titer-Glo viability), MTAP knock-out cells. Type of test: cell-based, human. The following applies: Homo sapiens, HCT-116, 144 h, 6 days incubation, 0-10 μM, * = more than 50% viability inhibition at tested concentration without a full curve. The gist of the method: (§1)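 Viability was read by CellTiter-Glo luminescence after 6 days of compound treatment (0–10 μM final, 37° C, 5% CO2), and IC50 values were fitted. The isogenic HCT116 pair, MTAP-KO clone versus mock-KO MTAP-wildtype, was grown in RPMI 1640 plus 10% FBS and seeded the day before.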
A general note: Cellular ATP, detected with luciferase, serves as a proxy for viable cell number.

A further test concerns HCT116-mock-RNA-KO. The test is described as follows: Cell killing in HCT116 isogenic pair (Cell Titer-Glo viability), mock knock-out cells with MTAP wildtype genotype. Format: cell-based, human. The following applies: Homo sapiens, HCT-116, 144 h, 6 days incubation, 0-10 μM. The gist of the method:
as §1

Where only a bound is given, the exact number is not on record here.

Turning to `COC[C@@H](C)N(Cc1cnc(C2CC2)cn1)C(=O)c1cc2nc(N)c3c(c2[nH]1)COC3` [Example 53, (R)-5-amino-N-((5-cyclopropylpyrazin-2-yl)methyl)-N-(1-methoxypropan-2-yl)-6,8-dihydro-1H-furo[3,4-d]pyrrolo[3,2-b]pyridine-2-carboxamide], the figures for the half-maximal inhibitory concentration (IC50) with HCT116-MTAP-KO and with HCT116-mock-RNA-KO were 34 nM and > 10000 nM, respectively.
As for `N#Cc1cc(F)c(CN(Cc2ncccc2F)C(=O)c2cc3nc(N)c4c(c3[nH]2)COC4)c(F)c1` [Example 43, 5-amino-N-(4-cyano-2,6-difluorobenzyl)-N-((3-fluoropyridin-2-yl)methyl)-6,8-dihydro-1H-furo[3,4-d]pyrrolo[3,2-b]pyridine-2-carboxamide], the half-inhibitory concentration (IC50) in the test with HCT116-MTAP-KO is 2.9 nM; in the test with HCT116-mock-RNA-KO it was 207 nM.
On to `CCN(C(=O)c1cc2nc(N)c3c(c2[nH]1)COC3)[C@@H](C)c1ccc(C(F)(F)F)cn1` [Example 114, (S)-5-amino-N-ethyl-N-(1-(5-(trifluoromethyl)pyridin-2-yl)ethyl)-6,8-dihydro-1H-furo[3,4-d]pyrrolo[3,2-b]pyridine-2-carboxamide], for which the results for the half-inhibitory concentration (IC50) in the test with HCT116-MTAP-KO and with HCT116-mock-RNA-KO were 3630 nM and > 10000 nM, respectively.
The matching figures for `C[C@H](c1ccc(C2CC2)cn1)N(C(=O)c1cc2nc(N)c3c(c2[nH]1)COC3)C1CCC1` [Example 159, (R)-5-amino-N-cyclobutyl-N-(1-(5-cyclopropylpyridin-2-yl)ethyl)-6,8-dihydro-1H-furo[3,4-d]pyrrolo[3,2-b]pyridine-2-carboxamide]: 36 nM and 2580 nM.
As for `CN(C(=O)c1cc2nc(N)c3c(c2[nH]1)COC3)[C@@H]1COCc2cc(Br)cc(F)c21` [Example 96, (S)-5-amino-N-(7-bromo-5-fluoroisochroman-4-yl)-N-methyl-6,8-dihydro-1H-furo[3,4-d]pyrrolo[3,2-b]pyridine-2-carboxamide], the values for the IC50 in the test with HCT116-MTAP-KO and in the test with HCT116-mock-RNA-KO were 7.2 nM and 1930 nM, respectively.
The matching figures for `C[C@@H](c1ncc(C2CC2)cc1F)N(C(=O)c1cc2nc(N)c3c(c2[nH]1)COC3)C1CCC1` [Example 154, (S)-5-amino-N-cyclobutyl-N-(1-(5-cyclopropyl-3-fluoropyridin-2-yl)ethyl)-6,8-dihydro-1H-furo[3,4-d]pyrrolo[3,2-b]pyridine-2-carboxamide]: 1630 nM and 8520 nM.
Take `C[C@H]1OCc2c1c(N)nc1cc(C(=O)N(C)[C@@H](C)c3ccc(C(F)(F)F)cc3F)[nH]c21` [Example 147, (R)-5-amino-N—((S)-1-(2-fluoro-4-(trifluoromethyl)phenyl)ethyl)-N,6-dimethyl-6,8-dihydro-1H-furo[3,4-d]pyrrolo[3,2-b]pyridine-2-carboxamide]: the concentration for half-maximal inhibition (IC50) in the test with HCT116-MTAP-KO amounted to 1230 nM; with HCT116-mock-RNA-KO, 5420 nM.
Consider `C[C@@H](c1c(F)cc(C(F)(F)F)cc1F)N(C)C(=O)c1cc2nc(N)c3c(c2[nH]1)COC3` [Example 149, (S)-5-amino-N-(1-(2,6-difluoro-4-(trifluoromethyl)phenyl)ethyl)-N-methyl-6,8-dihydro-1H-furo[3,4-d]pyrrolo[3,2-b]pyridine-2-carboxamide], for which the IC50 in the test with HCT116-MTAP-KO is 2680 nM; in the test on HCT116-mock-RNA-KO it was > 10000 nM.
With `CN(C(=O)c1cc2nc(N)c3c(c2[nH]1)COC3)[C@@H]1COCc2nc(C3CC3)ccc21` [Example 87, (S)-5-amino-N-(2-cyclopropyl-5,8-dihydro-6H-pyrano[3,4-b]pyridin-5-yl)-N-methyl-6,8-dihydro-1H-furo[3,4-d]pyrrolo[3,2-b]pyridine-2-carboxamide], the figures for the half-inhibitory concentration (IC50) in the test on HCT116-MTAP-KO and in the test on HCT116-mock-RNA-KO were 67 nM and > 10000 nM, respectively.
The matching figures for `Nc1nc2cc(C(=O)N(Cc3ncccc3F)Cc3ncccc3F)[nH]c2c2c1COC2` [Example 7, 5-amino-N,N-bis((3-fluoropyridin-2-yl)methyl)-6,8-dihydro-1H-furo[3,4-d]pyrrolo[3,2-b]pyridine-2-carboxamide]: 30 nM and 3140 nM.
The matching figures for `Nc1nc2cc(C(=O)N(Cc3ccc(-c4c(F)cncc4F)cn3)Cc3c(Cl)cccc3Cl)[nH]c2c2c1COC2` [Example 31, 5-amino-N-(2,6-dichlorobenzyl)-N-((3′,5′-difluoro-[3,4′-bipyridin]-6-yl)methyl)-6,8-dihydro-1H-furo[3,4-d]pyrrolo[3,2-b]pyridine-2-carboxamide]: 1.2 nM and 7.1 nM.
For the compound `CN1CC[C@@H](N(C)C(=O)c2cc3nc(N)c4c(c3[nH]2)COC4)c2ccc(C(F)(F)F)cc21` [Example 181, (R)-5-amino-N-methyl-N-(1-methyl-7-(trifluoromethyl)-1,2,3,4-tetrahydroquinolin-4-yl)-6,8-dihydro-1H-furo[3,4-d]pyrrolo[3,2-b]pyridine-2-carboxamide], the IC50 turned out to be 15 nM with HCT116-MTAP-KO and 1800 nM with HCT116-mock-RNA-KO.
As to `N#Cc1ccc(CN(Cc2c(F)cccc2F)C(=O)c2cc3nc(N)c4c(c3[nH]2)COC4)nc1` [Example 32, 5-amino-N-((5-cyanopyridin-2-yl)methyl)-N-(2,6-difluorobenzyl)-6,8-dihydro-1H-furo[3,4-d]pyrrolo[3,2-b]pyridine-2-carboxamide], the IC50 came to 3.9 nM with HCT116-MTAP-KO and 451 nM in the test on HCT116-mock-RNA-KO.
For `Cn1ncnc1-c1ccc(CN(C(=O)c2cc3nc(N)c4c(c3[nH]2)COC4)[C@@H]2CCCc3cccnc32)nc1` [Example 25, (R)-5-amino-N-((5-(1-methyl-1H-1,2,4-triazol-5-yl)pyridin-2-yl)methyl)-N-(5,6,7,8-tetrahydroquinolin-8-yl)-6,8-dihydro-1H-furo[3,4-d]pyrrolo[3,2-b]pyridine-2-carboxamide], the figures for the IC50 in the test with HCT116-MTAP-KO and in the test with HCT116-mock-RNA-KO were 96 nM and 2000 nM, respectively.
The matching figures for `Nc1nc2cc(C(=O)N(Cc3c(F)cncc3F)[C@@H]3CCCc4cccnc43)[nH]c2c2c1COC2` [Example 10, (R)-5-amino-N-((3,5-difluoropyridin-4-yl)methyl)-N-(5,6,7,8-tetrahydroquinolin-8-yl)-6,8-dihydro-1H-furo[3,4-d]pyrrolo[3,2-b]pyridine-2-carboxamide]: 4.6 nM and 247 nM.
As to `CCN(C(=O)c1cc2nc(N)c3c(c2[nH]1)COC3)[C@@H]1COCc2cc(F)cc(F)c21` [Example 75, (S)-5-amino-N-(5,7-difluoroisochroman-4-yl)-N-ethyl-6,8-dihydro-1H-furo[3,4-d]pyrrolo[3,2-b]pyridine-2-carboxamide], the results for the half-inhibitory concentration (IC50) in the test with HCT116-MTAP-KO and with HCT116-mock-RNA-KO were 41 nM and > 10000 nM, respectively.
The matching figures for `CN(C(=O)c1cc2nc(N)c3c(c2[nH]1)COC3)[C@@H]1COCc2nc(C(F)(F)F)ccc21` [Example 85, (S)-5-amino-N-methyl-N-(2-(trifluoromethyl)-5,8-dihydro-6H-pyrano[3,4-b]pyridin-5-yl)-6,8-dihydro-1H-furo[3,4-d]pyrrolo[3,2-b]pyridine-2-carboxamide]: 113 nM and > 10000 nM.
For the compound `CO[C@@H]1CCOC[C@H]1N(Cc1ccc(-c2ccncc2)cn1)C(=O)c1cc2nc(N)c3c(c2[nH]1)COC3` [Example 28, N-([3,4′-bipyridin]-6-ylmethyl)-5-amino-N-((3R,4R)-4-methoxytetrahydro-2H-pyran-3-yl)-6,8-dihydro-1H-furo[3,4-d]pyrrolo[3,2-b]pyridine-2-carboxamide], the half-inhibitory concentration (IC50) in the test with HCT116-MTAP-KO was found to be 11 nM; in the test on HCT116-mock-RNA-KO, 1900 nM.

In general, IC50 refers to the concentration at which inhibition is half-maximal. A lower IC50 goes with higher potency.

The values are drawn from US20240368177A1, “5-AMINO-6,8-DIHYDRO-1H-FURO[3,4-d]PYRROLO[3,2-b]PYRIDINE-2-CARBOXAMIDE DERIVATIVES AS MTA-COOPERATIVE INHIBITORS OF PRMT5” (BeiGene Switzerland GmbH, priority 2023, published 2024).
